Source: patent US9708334B2, “Substituted 2,4,5,6-tetrahydropyrrolo[3,4-c]pyrazole and 4,5,6,7-tetrahydro-2H-pyrazolo[4,3-c]pyridine compounds as GlyT1 inhibitors” (DART NEUROSCIENCE (CAYMAN) LTD., priority 2014, dated 2017)

Biological target: T1, GlyT1 (Homo sapiens, UniProt P48067)
T1 construct: expressed in transfected cells
T1 sequence (P48067 1-706): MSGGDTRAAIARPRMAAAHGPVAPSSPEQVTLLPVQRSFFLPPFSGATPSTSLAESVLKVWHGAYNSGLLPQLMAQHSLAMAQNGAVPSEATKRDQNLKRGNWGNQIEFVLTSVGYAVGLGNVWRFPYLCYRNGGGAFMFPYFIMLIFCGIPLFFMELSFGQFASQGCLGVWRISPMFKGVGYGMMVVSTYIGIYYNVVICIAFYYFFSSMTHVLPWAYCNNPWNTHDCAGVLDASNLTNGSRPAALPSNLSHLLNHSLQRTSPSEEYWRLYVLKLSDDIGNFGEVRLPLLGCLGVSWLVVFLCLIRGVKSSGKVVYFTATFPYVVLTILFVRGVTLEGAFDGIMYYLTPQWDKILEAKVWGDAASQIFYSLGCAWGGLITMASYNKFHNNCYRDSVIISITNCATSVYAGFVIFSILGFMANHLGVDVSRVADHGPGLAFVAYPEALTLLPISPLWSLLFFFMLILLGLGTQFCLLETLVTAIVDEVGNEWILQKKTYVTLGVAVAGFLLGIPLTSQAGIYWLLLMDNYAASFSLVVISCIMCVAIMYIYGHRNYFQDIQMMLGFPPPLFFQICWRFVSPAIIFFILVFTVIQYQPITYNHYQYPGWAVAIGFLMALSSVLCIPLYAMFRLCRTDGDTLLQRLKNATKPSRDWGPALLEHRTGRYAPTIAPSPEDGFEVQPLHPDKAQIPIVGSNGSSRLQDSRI
Test: Glycine Transporter 1 (GlyT1) uptake assay, scintillation proximity assay of [14C]-glycine uptake
Format: cell-based
Details: SPA, four parameter logistic fit, read-out: GlyT1 (pIC50) (converted)
Outline: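 IC50 values derive from four-parameter logistic curves fitted to dose-response data. Uptake of [14C]-glycine measured in scintillation proximity format.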

| Structure (SMILES) | IC50 [nM] |
| --- | --- |
| CC(C)Oc1ccc(S(=O)(=O)C(C)C)cc1C(=O)N1Cc2cn(-c3ccccc3F)nc2C1 [Example 95, 2-(2-Fluorophenyl)-5-[2-(propan-2-yloxy)-5-(propane-2-sulfonyl)benzoyl]-2H 4H 5H 6H-pyrrolo[3,4-c]pyrazole] | 1000 to 10000 |
| Cc1cccc(-n2cc3c(n2)CN(C(=O)c2cc(S(=O)(=O)C(C)C)ccc2OC(C)C)C3)c1 [Example 96, 2-(3-Methylphenyl)-5-[2-(propan-2-yloxy)-5-(propane-2-sulfonyl)benzoyl]-2H 4H 5H 6H-pyrrolo[3,4-c]pyrazole] | 1000 to 10000 |
| CC(C)Oc1ccc(S(=O)(=O)C(C)C)cc1C(=O)N1Cc2cn(-c3ccccc3)nc2C1 [Example 97, 2-Phenyl-5-[2-(propan-2-yloxy)-5-(propane-2-sulfonyl)benzoyl]-2H 4H 5H 6H-pyrrolo[3,4-c]pyrazole] | 1000 to 10000 |
| CC(C)Oc1ccc(S(=O)(=O)C(C)C)cc1C(=O)N1Cc2cn(-c3ccc(F)cc3)nc2C1 [Example 98, 2-(4-Fluorophenyl)-5-[2-(propan-2-yloxy)-5-(propane-2-sulfonyl)benzoyl]-2H 4H 5H 6H-pyrrolo[3,4-c]pyrazole] | 100 to 1000 |
| CC(C)Oc1ccc(S(=O)(=O)C(C)C)cc1C(=O)N1Cc2cn(-c3ccc(F)c(F)c3)nc2C1 [Example 99, 2-(3 4-Difluorophenyl)-5-[2-(propan-2-yloxy)-5-(propane-2-sulfonyl)benzoyl]-2H 4H 5H 6H-pyrrolo[3,4-c]pyrazole] | 100 to 1000 |
| Cc1cc(-n2cc3c(n2)CN(C(=O)c2cc(S(C)(=O)=O)ccc2N2CCC(F)(F)CC2)C3)ccn1 [Example 101, 4-{5-[2-(4 4-Difluoropiperidin-1-yl)-5-methanesulfonylbenzoyl]-2H 4H 5H 6H-pyrrolo[3,4-c]pyrazol-2-yl}-2-methylpyridine] | < 100 |
| CS(=O)(=O)c1ccc(OCC(F)(F)F)c(C(=O)N2Cc3cn(-c4ccccc4)nc3C2)c1 [Example 102, 5-[5-Methanesulfonyl-2-(2 2 2-trifluoroethoxy)benzoyl]-2-phenyl-2H 4H 5H 6H-pyrrolo[3,4-c]pyrazole] | < 100 |
| CS(=O)(=O)c1ccc(OCC(F)(F)F)c(C(=O)N2Cc3cn(-c4ccc(F)cc4)nc3C2)c1 [Example 103, 2-(4-Fluorophenyl)-5-[5-methanesulfonyl-2-(2 2 2-trifluoroethoxy)benzoyl]-2H 4H 5H 6H-pyrrolo[3,4-c]pyrazole] | < 100 |
| CS(=O)(=O)c1ccc(OCC(F)(F)F)c(C(=O)N2Cc3cn(-c4ccccc4F)nc3C2)c1 [Example 104, 2-(2-Fluorophenyl)-5-[5-methanesulfonyl-2-(2 2 2-trifluoroethoxy)benzoyl]-2H 4H 5H 6H-pyrrolo[3,4-c]pyrazole] | < 100 |
| Cc1cccc(-n2cc3c(n2)CN(C(=O)c2cc(S(C)(=O)=O)ccc2OCC(F)(F)F)C3)c1 [Example 105, 5-[5-Methanesulfonyl-2-(2 2 2-trifluoroethoxy)benzoyl]-2-(3-methylphenyl)-2H 4H 5H 6H-pyrrolo[3,4-c]pyrazole] | < 100 |
| Cc1cccc(-n2cc3c(n2)CN(C(=O)c2cc(S(C)(=O)=O)ccc2OCC(F)(F)F)C3)c1F [Example 106, 2-(2-Fluoro-3-methylphenyl)-5-[5-methanesulfonyl-2-(2 2 2-trifluoroethoxy)benzoyl]-2H 4H 5H 6H-pyrrolo[3,4-c]pyrazole] | < 100 |
| CS(=O)(=O)c1ccc(-c2cccc(F)c2)c(C(=O)N2Cc3cn(-c4ccc(F)cn4)nc3C2)c1 [Example 107, 5-Fluoro-2-{5-[2-(3-fluorophenyl)-5-methanesulfonylbenzoyl]-2H 4H 5H 6H-pyrrolo[3,4-c]pyrazol-2-yl}pyridine] | < 100 |
| CS(=O)(=O)c1ccc(-c2cccc(F)c2)c(C(=O)N2Cc3cn(-c4cncc(F)c4)nc3C2)c1 [Example 108, 3-Fluoro-5-{5-[2-(3-fluorophenyl)-5-methanesulfonylbenzoyl]-2H 4H 5H 6H-pyrrolo[3,4-c]pyrazol-2-yl}pyridine] | < 100 |
| Cc1cc(-n2cc3c(n2)CN(C(=O)c2cc(S(C)(=O)=O)ccc2-c2cccc(F)c2)C3)ccn1 [Example 109, 4-{5-[2-(3-Fluorophenyl)-5-methanesulfonylbenzoyl]-2H 4H 5H 6H-pyrrolo[3,4-c]pyrazol-2-yl}-2-methylpyridine] | < 100 |
| Cc1cccc(-n2cc3c(n2)CN(C(=O)c2cc(S(C)(=O)=O)ccc2N2CCC(F)(F)CC2)C3)c1 [Example 110, 4 4-Difluoro-1-{4-methanesulfonyl-2-[2-(3-methylphenyl)-2H 4H 5H 6H-pyrrolo[3,4-c]pyrazole-5-carbonyl]phenyl}piperidine] | < 100 |
| CCS(=O)(=O)c1ccc(N2CCC(F)(F)CC2)c(C(=O)N2Cc3cn(-c4ccnc(C)c4)nc3C2)c1 [Example 111, 4-{5-[2-(4 4-Difluoropiperidin-1-yl)-5-(ethanesulfonyl)benzoyl]-2H 4H 5H 6H-pyrrolo[3,4-c]pyrazol-2-yl}-2-methylpyridine] | < 100 |
| CCS(=O)(=O)c1ccc(N2CCC(F)(F)CC2)c(C(=O)N2Cc3cn(-c4cncc(F)c4)nc3C2)c1 [Example 112] | < 100 |
| CCS(=O)(=O)c1ccc(O[C@@H](C)C(F)(F)F)c(C(=O)N2Cc3cn(-c4ccnc(C)c4)nc3C2)c1 [Example 113, 4-{5-[5-(Ethanesulfonyl)-2-{[(2S)-1 1 1-trifluoropropan-2-yl]oxy}benzoyl]-2H 4H 5H 6H-pyrrolo[3,4-c]pyrazol-2-yl}-2-methylpyridine] | < 100 |
| CCS(=O)(=O)c1ccc(O[C@@H](C)C(F)(F)F)c(C(=O)N2Cc3cn(-c4cncc(F)c4)nc3C2)c1 [Example 114, 3-{5-[5-(Ethanesulfonyl)-2-{[(2S)-1 1 1-trifluoropropan-2-yl]oxy}benzoyl]-2H 4H 5H 6H-pyrrolo[3,4-c]pyrazol-2-yl}-5-fluoropyridine] | < 100 |
| CS(=O)(=O)c1ccc(N2CCCCC2)c(C(=O)N2Cc3cn(-c4ccc(F)cn4)nc3C2)c1 [Example 115, 5-Fluoro-2-{5-[5-methanesulfonyl-2-(piperidin-1-yl)benzoyl]-2H 4H 5H 6H-pyrrolo[3,4-c]pyrazol-2-yl}pyridine] | < 100 |
| CS(=O)(=O)c1ccc(N2CCCCC2)c(C(=O)N2Cc3cn(-c4cncc(F)c4)nc3C2)c1 [Example 116, 3-Fluoro-5-{5-[5-methanesulfonyl-2-(piperidin-1-yl)benzoyl]-2H 4H 5H 6H-pyrrolo[3,4-c]pyrazol-2-yl}pyridine] | < 100 |
| Cc1cc(-n2cc3c(n2)CN(C(=O)c2cc(S(C)(=O)=O)ccc2N2CCCCC2)C3)ccn1 [Example 117, 4-{5-[5-Methanesulfonyl-2-(piperidin-1-yl)benzoyl]-2H 4H 5H 6H-pyrrolo[3,4-c]pyrazol-2-yl}-2-methylpyridine] | < 100 |
| CS(=O)(=O)c1ccc(OCC2CC2)c(C(=O)N2Cc3cn(-c4ccccc4)nc3C2)c1 [Example 118, 5-[2-(Cyclopropylmethoxy)-5-methanesulfonylbenzoyl]-2-phenyl-2H 4H 5H 6H-pyrrolo[3,4-c]pyrazole] | 100 to 1000 |
| CS(=O)(=O)c1ccc(OCC2CC2)c(C(=O)N2Cc3cn(-c4ccccc4F)nc3C2)c1 [Example 119, 5-[2-(Cyclopropylmethoxy)-5-methanesulfonylbenzoyl]-2-(2-fluorophenyl)-2H 4H 5H 6H-pyrrolo[3,4-c]pyrazole] | < 100 |
| CS(=O)(=O)c1ccc(N2CCC(F)(F)CC2)c(C(=O)N2Cc3cn(-c4ccc(F)cn4)nc3C2)c1 [Example 120, 2-{5-[2-(4 4-Difluoropiperidin-1-yl)-5-methanesulfonylbenzoyl]-2H 4H 5H 6H-pyrrolo[3,4-c]pyrazol-2-yl}-5-fluoropyridine] | < 100 |
| C[C@H](Oc1ccc(S(C)(=O)=O)cc1C(=O)N1Cc2cn(-c3cc(F)ccc3F)nc2C1)C(F)(F)F [Example 121, 2-(2 5-Difluorophenyl)-5-(5-methanesulfonyl-2-{[(2S)-1 1 1-trifluoropropan-2-yl]oxy}benzoyl)-2H 4H 5H 6H-pyrrolo[3,4-c]pyrazole] | < 100 |
| Cc1ccc(F)c(-n2cc3c(n2)CN(C(=O)c2cc(S(C)(=O)=O)ccc2O[C@@H](C)C(F)(F)F)C3)c1 [Example 122, 2-(2-Fluoro-5-methylphenyl)-5-(5-methanesulfonyl-2-{[(2S)-1 1 1-trifluoropropan-2-yl]oxy}benzoyl)-2H 4H 5H 6H-pyrrolo[3,4-c]pyrazole] | < 100 |
| CS(=O)(=O)c1ccc(N2CCC(F)(F)CC2)c(C(=O)N2Cc3cn(-c4cc(F)ccc4F)nc3C2)c1 [Example 123, 1-{2-[2-(2 5-Difluorophenyl)-2H 4H 5H 6H-pyrrolo[3,4-c]pyrazole-5-carbonyl]-4-methanesulfonylphenyl}-4 4-difluoropiperidine] | < 100 |
| Cc1ccc(F)c(-n2cc3c(n2)CN(C(=O)c2cc(S(C)(=O)=O)ccc2N2CCC(F)(F)CC2)C3)c1 [Example 124, 4 4-Difluoro-1-{2-[2-(2-fluoro-5-methylphenyl)-2H 4H 5H 6H-pyrrolo[3,4-c]pyrazole-5-carbonyl]-4-methanesulfonylphenyl}piperidine] | < 100 |
